Experimental findings from patent US12187696B2, “Urea motif containing compounds and derivatives thereof as antibacterial drugs” (Technische Universität München, priority 2016, dated 2025) are described below.

The term IC50 denotes the concentration that gives 50% inhibition.

Each structure is given as a SMILES string.

In one assay the test system is Staphylococcus aureus NCTC8325. Briefly: Minimal inhibitory concentration (MIC) assay. The class given is cell-based. Conditions: Staphylococcus aureus, NCTC8325; inhibition of bacterial growth of S. aureus NCTC 8325; obtained by MIC assay. The procedure:
Minimum inhibitory concentrations (MICs) represent the lowest concentration of sample that will inhibit the visible growth of a microorganism after overnight incubation, and was obtained by a 96 well plate-based assay (Thermo Scientific) with serial dilutions of the probes tested. […] Bacteria were diluted in fresh medium to a concentration of 10^5 CFU/mL. In the case of all other bacteria species tested, fresh media was inoculated 1/10000 and directly used for testing. Diluted bacterial cultures (99 μL) were added to various concentrations of probe (1 μL of the respective stock in DMSO). A growth control containing DMSO (1 μL) and cultivated medium (99 μL) and a sterile control containing fresh medium (100 μL) were run on every 96 well plate in triplicates. After incubation at 37° C. with gentle shaking (200 rpm) for 24 h, the dilution series was analysed for microbial growth, usually indicated by turbidity and/or a pellet of bacteria at the bottom of the well. The lowest concentration in the dilution series at which no growth of bacteria could be observed by eye was defined as the minimum inhibitory concentration (MIC) of the probe. MIC values were determined by three independent experiments with at least triplicate runs for each concentration. […] Both compounds were tested against various bacterial strains. […] The assay was performed as described above.
Molecule `COC(=O)c1cccc(Oc2ccc(NC(=O)Nc3ccc(Cl)c(C(F)(F)F)c3)cc2)c1` [Example 1, Methyl 3-(4-(3-(4-chloro-3-(trifluoromethyl)phenyl)ureido)phenoxy)benzoate] gave an IC50 of 500 nM. As to `O=C(Nc1ccc(C(=O)c2ccccc2)cc1)Nc1ccc(Cl)c(C(F)(F)F)c1` [Example 2, 1-(4-Benzoylphenyl)-3-(4-chloro-3-(trifluoromethyl)phenyl)urea], inhibition was half-maximal at 1000 nM (IC50). Still for that read-out and setting: the same measure for `CNC(=O)c1ccc(NC(=O)Nc2ccc(Cl)c(C(F)(F)F)c2)cc1` [Example 3, 4-(3-(4-Chloro-3-(trifluoromethyl)phenyl)ureido)-N-methylbenzamide]: 30000 nM. `COc1ccc(NC(=O)Nc2ccc(Cl)c(C(F)(F)F)c2)cc1` [Example 5, 1-(4-Chloro-3-(trifluoromethyl)phenyl)-3-(4-methoxyphenyl)urea] showed an IC50 of 3000 nM. In turn, `O=C(Nc1ccc2c(c1)OCO2)Nc1ccc(Cl)c(C(F)(F)F)c1` [Example 6, 1-(Benzo[d][1,3]dioxol-5-yl)-3-(4-chloro-3-(trifluoromethyl)phenyl)urea] yielded an IC50 of 10000 nM.

Consider `COc1ccc(NC(=O)Nc2ccc(Cl)c(C(F)(F)F)c2)cc1OC` [Example 7, 1-(4-Chloro-3-(trifluoromethyl)phenyl)-3-(3,4-dimethoxyphenyl)urea], for which half-maximal inhibition (IC50) required 30000 nM. As for `COc1cc(NC(=O)Nc2ccc(Cl)c(C(F)(F)F)c2)cc(OC)c1OC` [Example 8, 1-(4-Chloro-3-(trifluoromethyl)phenyl)-3-(3,4,5-trimethoxyphenyl)urea], the 50% inhibitory concentration (IC50) is 30000 nM. This counts as double-digit micromolar. Take `O=C(Nc1ccc(Cl)c(C(F)(F)F)c1)Nc1cccc2c1OC(F)(F)O2` [Example 9, 1-(4-Chloro-3-(trifluoromethyl)phenyl)-3-(2,2-difluorobenzo[d][1,3]dioxol-4-yl)urea]: inhibition was half-maximal at 1000 nM (IC50). In turn, `FC1(F)Oc2ccc(NC(=S)Nc3ccc(Cl)c(C(F)(F)F)c3)cc2O1` [Example 10, 1-(4-Chloro-3-(trifluoromethyl)phenyl)-3-(2,2-difluorobenzo[d][1,3]dioxol-5-yl)thiourea] showed an IC50 of 1000 nM.

The molecule `O=C(Nc1ccc(Cl)c(C(F)(F)F)c1)Nc1ccc2ccccc2c1` [Example 11, 1-(4-Chloro-3-(trifluoromethyl)phenyl)-3-(naphthalen-2-yl)urea] yielded an IC50 of 1000 nM.

In the case of `O=C(Nc1ccc(Cc2ccccc2)cc1)Nc1ccc(Cl)c(C(F)(F)F)c1` [Example 12, 1-(4-Benzylphenyl)-3-(4-chloro-3-(trifluoromethyl)phenyl)urea], the midpoint of inhibition, the IC50, lay at 1000 nM.

With `CCc1ccc(NC(=O)Nc2ccc(Cl)c(C(F)(F)F)c2)cc1` [Example 13, 1-(4-Chloro-3-(trifluoromethyl)phenyl)-3-(4-ethylphenyl)urea], the IC50 was found to be 1000 nM. The molecule `Cc1cc(NC(=O)Nc2ccc3c(c2)OC(F)(F)O3)ccc1Cl` [Example 14, 1-(4-Chloro-3-methylphenyl)-3-(2,2-difluorobenzo[d][1,3]dioxol-5-yl)urea] yielded an IC50 of 1000 nM. This counts as single-digit micromolar. Same read-out and setting: the same measure for `O=C(Nc1cccc(C(F)(F)F)c1)Nc1ccc2c(c1)OC(F)(F)O2` [Example 15, 1-(2,2-difluorobenzo[d][1,3]dioxol-5-yl)-3-(3-(trifluoromethyl)phenyl)urea]: 1000 nM; for `O=C(Nc1ccccc1)Nc1ccc(Cl)c(C(F)(F)F)c1` [Example 16, 1-(4-Chloro-3-(trifluoromethyl)phenyl)-3-phenylurea]: 3000 nM. As to `CCCCOC(=O)c1ccc(NC(=O)Nc2ccc(Cl)c(C(F)(F)F)c2)cc1` [Example 17, Butyl 4-(3-(4-chloro-3-(trifluoromethyl)phenyl)ureido)benzoate], the midpoint of inhibition, the IC50, lay at 600 nM. This IC50 is about 5-fold lower than that of the molecule before. In turn, `O=C(Nc1ccc(Oc2ccccc2)cc1)Nc1ccc(Cl)c(C(F)(F)F)c1` [Example 18, 1-(4-Chloro-3-(trifluoromethyl)phenyl)-3-(4-phenoxyphenyl)urea] returned an IC50 of 600 nM. This lies in the sub-micromolar range. Take `O=C(Nc1cccc(NC(=O)Nc2ccc(Cl)c(C(F)(F)F)c2)c1)Nc1ccc(Cl)c(C(F)(F)F)c1` [Example 19]: half-maximal inhibition (IC50) was put at 1000 nM. This IC50 lies about 1.7-fold higher than the previous one. In turn, `C#CCCC1(CCNC(=O)c2cc(Oc3ccc(NC(=O)Nc4ccc(Cl)c(C(F)(F)F)c4)cc3)ccn2)N=N1` [Probe compound, N-(2-(3-(but-3-yn-1-yl)-3H-diazirin-3-yl)ethyl)-4-(4-(3-(4-chloro-3-(trifluoromethyl)phenyl)ureido)phenoxy)picolinamide] came in with an IC50 of 10000 nM. With `O=C(Nc1ccccc1)Nc1ccc2c(c1)OC(F)(F)O2` [Reference Example 1, 1-(2,2-Difluorobenzo[d][1,3]dioxol-5-yl)-3-phenylurea], the IC50 was above 100000 nM.

Turning to `Cc1ccc(NC(=O)Nc2ccc3c(c2)OC(F)(F)O3)cc1` [Reference Example 2, 1-(2,2-Difluorobenzo[d][1,3]dioxol-5-yl)-3-(p-tolyl)urea], the IC50 is above 100000 nM. Regarding `Cc1cc(C)c(NC(=O)Nc2ccc3c(c2)OC(F)(F)O3)c(C)c1` [Reference Example 3, 1-(2,2-Difluorobenzo[d][1,3]dioxol-5-yl)-3-mesitylurea], the IC50 was above 100000 nM. For `CCCCCCCCNC(=O)Nc1ccc2c(c1)OC(F)(F)O2` [Reference Example 4, 1-(2,2-Difluorobenzo[d][1,3]dioxol-5-yl)-3-octylurea], the IC50 is above 100000 nM. Regarding `CNC(=O)c1cc(Oc2ccc(NC(=O)Nc3ccccc3)cc2)ccn1` [Reference Example 5, N-Methyl-4-(4-(3-phenylureido)phenoxy)picolinamide], the IC50 was above 100000 nM.

A further assay concerns S. aureus NCTC 8325 persister cells. Briefly: Persister cell assay I. The class given is cell-based. Conditions: gentamicin-selected persisters in PBS; 70 h; 2.4 μM PK/X17-1-150, 24 μM sorafenib, 5 μg/mL ciprofloxacin.
As to `O=C(O)c1cn(C2CC2)c2cc(N3CCNCC3)c(F)cc2c1=O` [ciprofloxacin, reference compound], the “viable persister cells (CFU/mL) vs DMSO control” value was “no change”.

Another assay shares this test system. Briefly: Persister cell assay II. The class given is cell-based. Conditions: TSB, with or without 30 μg/mL oxacillin; 20 h or 70 h; 2.4 μM PK/X17-1-150 or PK/X17-4-011, 24 μM sorafenib or PK/X17-2-011, 5 μg/mL ciprofloxacin. As to the method: Persister cell assay II. Tryptic soy broth (50 mL in 250 mL culture flasks) was inoculated 1:1000 with overnight cultures of NCTC 8325 and grown at 37° C. and 200 rpm until an OD600 of 4 was reached or overnight (ON). Serial dilution were prepared and plated to determine the cell numbers in the inoculum. […]. […] After 20 h (A) or 70 h (B) of treatment, cells were harvested, washed two times with PBS (10000×g, 3 min), serially diluted and plated on agar plates for determination of surviving cell numbers.
As to `O=C(Nc1ccccc1)Nc1ccc2c(c1)OC(F)(F)O2` [Reference Example 1, 1-(2,2-Difluorobenzo[d][1,3]dioxol-5-yl)-3-phenylurea], the “viable persister cells (CFU/mL) vs DMSO control” value is given as “no change”. Consider `CNC(=O)c1cc(Oc2ccc(NC(=O)Nc3ccccc3)cc2)ccn1` [Reference Example 5, N-Methyl-4-(4-(3-phenylureido)phenoxy)picolinamide], for which the “viable persister cells (CFU/mL) vs DMSO control” value is “no change”. Still for that read-out and setting: the same measure for `O=C(O)c1cn(C2CC2)c2cc(N3CCNCC3)c(F)cc2c1=O` [ciprofloxacin, reference compound]: “no change”.
